Data from patent US8048924B2, “Methods and compositions employing 4-aminophenylacetic acid compounds” (Biocon Limited, priority 2001, dated 2011).
Several values for one entry are separate records, joined by “and”; a condition that tells them apart may be missing. Equal entries are not always repeated.

Columns and labels:
DNBS colitis = DNBS colitis in the rat, equimolar rectal doses of 5-ASA, 4-APAA and mixture; type: in vivo, male Lewis rats; settings: for average severity score for necrosis, Adventitia / average severity score for necrosis, Mucosa / average severity score for necrosis, Muscularis / average severity score for necrosis, Submucosa: colon histology, scale 1-5, intrarectal twice daily for four days; for reduction in colon:body weight [% BW] / reduction of adhesion scores: rectal b.i.d. 4 days; for reduction in colon:body weight [% BW]: 5-ASA 50 mg/kg, 4-APAA 49.5 mg/kg, mixture 50+49.5 mg/kg; for reduction of adhesion scores: vs vehicle/DNBS
Source text: The purpose of this study was to histologically evaluate and compare the effects of three different therapeutic agents administered intrarectally (twice daily for four days) to male Lewis rats following intrarectal administration of dinitrobenzene sulfonic acid (DNBS). DNBS induced colitis in rats according to an established experimental model (see, for example, Bertran et al., “Intracolonic administration of zileuton, a selective 5-lipoxygenase inhibitor, accelerates healing in a rat model of chronic colitis,” Gut. 38(6):899-904 (1996), and Blau et al., “Relation between colonic inflammation severity and total low-molecular-weight antioxidant profiles in experimental colitis,” Dig Dis Sci. 45(6):1180-1187 (2000), the entire disclosures of which are incorporated herein by reference). SHAM and DNBS groups served as negative and positive controls, respectively.
Trimmed specimens of colon from 27 male rats were tested, including microtoming, and hematoxylin and eosin staining. The resulting 27 slides (1 transverse section per slide) were examined microscopically. Except for one rat from the SHAM group and one rat from the DNBS group, all slides had their labels taped over to facilitate blind reading. Lesions were graded on a scale of 1-5 (1=minimal; 2=mild; 3=moderate; 4=moderately-severe; 5=severe).
Because the pattern of necrosis often varied from section to section, the individual intestinal layers were scored separately.
Dinitrobenzene sulfonic acid (DNBS) colitis was induced (no ether anesthesia) in 4 groups 4 of 6 Lewis rats each. One DNBS group was dosed with vehicle (0.7% methyl cellulose) as well as an additional sham group of 6 animals that received a saline enema instead of DNBS. Intrarectal (ir) dosing was performed in conscious animals b.i.d. for 4 days. Drug treatments were as follows: • 5-aminosalicylic acid (5-ASA): 50 mg/kg • 4-aminophenylacetic acid (4-APAA): 49.5 mg/kg (equimolar to 5-ASA) • Mixture: 5-ASA+4-APAA: 50 mg/kg+49.5 mg/kg
Drugs were suspended in the above mentioned vehicle and staff blinded to drug groups. Daily weights and diarrhea scores were recorded. On the 5th day post-irritant rats were sacrificed, laparotomies performed and scored for intestinal adhesions and strictures; colectomized and colon weights recorded, colons opened longitudinally and inflammation/ulcerations scored.
The anti-inflammatory effects of 3 different treatments were compared in a DNBS model of colitis in 30 male Lewis rats weighing between 218 and 260 grams.
Animals were divided into 5 groups of 6 animals in each group: • 0.7% methylcellulose (vehicle)+normal saline • 0.7% methylcellulose (vehicle)+ethanolic solution of 2,4-dinitrobenzenesulfonic acid (DNBS) 30 mg • 5-ASA at 100 mg/kg·day+DNBS 30 mg/rectally • 4-APAA at 99 mg/kg·day+DNBS 30 mg/rectally • 5-ASA+4-APAA mixture (APAZA™) at 199 mg/kg·day+DNBS 30 mg/rectally
Experimental colitis was induced under light anesthesia (ketamine/xylazine) in 4 of 5 groups by instilling DNBS (30 mg) rectally at a volume of 0.5 mL to fasted rats. Each group of animals received rectal twice daily (bid) doses of either vehicle (0.7% methylcellulose) or test compounds (5-ASA, 4-APAA or APAZA™) for 4 days beginning 24 hours after either the normal saline or DNBS irritant was instilled. Body weight and incidence of diarrhea were recorded daily. Each animal in the 4 DNBS groups and in the single parallel saline group was sacrificed 5 days post irritant. Laparotomies and colectomies were performed and animals were scored for the presence and severity of intestinal adhesions, strictures, inflammation, and ulceration. Colon: body weight ratios were determined and tissue was examined histologically.

[1] = Single oral dose plasma pharmacokinetics and elimination of APAZA and metabolites in mice; type: in vivo, male CD-1 mice
Method: Initial single dose pharmacokinetic studies with the APAZA™ compound have been conducted in dogs and mice. A study was completed in order to determine the plasma pharmacokinetics and elimination of the APAZA™ compound and its metabolites (5-ASA, 4-APAA, 5-aceASA and 4-aceAPAA) following single oral dose administration to male CD-1 mice. […] When normalized to molar values, the Cmax values for all the APAZA™ metabolites were less than APAZA™; the values ranged from 2.68 to 13.8 μM. However, the normalized APAZA™ AUC∞ value was not greater than all the other metabolites; these values ranged from […]. […] The Tmax values for APAZA™ and its metabolites were 1 hour and 4 hours, respectively.

Compound | average severity score for necrosis, Adventitia (DNBS colitis) | average severity score for necrosis, Mucosa (DNBS colitis) | average severity score for necrosis, Muscularis (DNBS colitis) | average severity score for necrosis, Submucosa (DNBS colitis) | reduction in colon:body weight [% BW] (DNBS colitis) | reduction of adhesion scores (DNBS colitis) [%] | plasma concentration at 24 hours ([1]; single oral dose of APAZA, male CD-1 mice) | AUC(0-inf) ([1]; male, CD-1, mouse, in vivo, po) [ng·h/mL] | Cmax ([1]; male, CD-1, mouse, in vivo, po) [ng/mL] | Tmax ([1]; male, CD-1, mouse, in vivo, po) [h] | half-life ([1]; male, CD-1, mouse, in vivo, po) [h] | plasma concentration at 24 hours ([1]; mouse, in vivo, po)
Nc1ccc(O)c(C(=O)O)c1 [5-ASA, 5-amino-2-hydroxy-benzoic acid, reference compound] | 1.67 | 4.50 | 3.5 | 4.17 | ~31% and ~30% | ~17 |  |  |  |  |  | 
Nc1ccc(CC(=O)O)cc1 [4-APAA, (4-aminophenyl)-acetic acid] | 1.67 | 4.33 | 3.17 | 4.00 | ~31% and ~30% | ~25 | below the limit of detection |  |  |  |  | 
O=C(O)Cc1ccc(/N=N/c2ccc(O)c(C(=O)O)c2)cc1 [APAZA™, 5-(4-carboxymethyl-phenylazo)-2-hydroxy-benzoic acid] |  |  |  |  |  |  |  | 7430 | 5930 | 1 | 3.34 | below the limit of detection
